What all share (format): in vivo
The test system of experiment [1] is Corn earworm larvae (Heliothis zea (Boddie)). The experiment is described as follows: Corn earworm larvae test on sprayed broad bean plant (44-46 hours). Conditions: concentration by weight in the formulation. On the procedure:
V. Corn earworm larvae (Heliothis zea (Boddie)) were tested by spraying a broad bean plant with dilutions of an acetone solution of the test compound in water containing an emulsifier. Immediately after spraying, 5 larvae were transferred to the plant and held for 44-46 hours, at which time the dead and moribund larvae were counted. The tests were conducted employing several different dosage rates for each test compound.
(§1) In the case of each species of insect, the concentration of the test compound by weight in the formulation required to kill fifty percent of the test insects--i.e., the LC50 dosage--was determined.

Experiment [2] concerns Pea aphids (Acyrthosiphon pisum (Harris)). In words: Pea aphid test on sprayed broad bean plants (living aphids counted at 18 to 20 hours). The conditions noted are these: concentration by weight in the formulation. The protocol:
II. Pea aphids (Acyrthosiphon pisum (Harris)) were tested by placing about 100 aphids on broad bean plants. The plants were sprayed with dilutions of an acetone solution of the test compound in water containing an emulsifier and held in containers under laboratory conditions for 18 to 20 hours, at which time the living aphids in the containers were counted. The tests were conducted employing several different dosage rates for each test compound.
as §1

The test system of experiment [3] is Adult female two-spotted mites (Tetranychus urticae (Koch)). The experiment is described as follows: Two-spotted spider mite test on sprayed pinto bean leaves (about 20 hours). Conditions: concentration by weight in the formulation. On the procedure:
III. Adult female two-spotted mites (Tetranychus urticae (Koch) was tested by placing 50-75 mites on the bottom side of leaves of pinto bean plants. The leaves were sprayed with dilutions of an acetone solution of the test compound in water containing an emulsifier and kept under laboratory conditions for about 20 hours, at which time mortality counts were made. The tests were conducted employing several different dosage rates for each test compound.
as §1

Experiment [4] has as its system Mosquito larvae (Anopheles albimanus (Weide)). In words: Mosquito larvae test in water (mortality after 18-22 hours). The conditions noted are these: in distilled water. The protocol:
IV. Mosquito larvae (Anopheles albimanus (Weide)) were tested by placing 10 living and active mosquito larvae in a jar containing a 0.1 ml aliquot of a 1% acetone solution of the test compound thoroughly mixed with 100 ml of distilled water. After 18-22 hours, mortality counts were taken. Both dead and moribund larvae were counted as dead. […] The tests were conducted employing several different dosage rates for each compound.
as §1

In experiment [5] the test system is Houseflies (Musca domestica (Linne)). The experiment is described as follows: Housefly spray test (mortality after 18-20 hours). The conditions noted are these: concentration by weight in the formulation. On the procedure:
I. Houseflies (Musca domestica (Linne)) were tested by placing 50 4- to 5-day old housflies into a spray cage and spraying with 0.6 ml of a solution of test compound. After spraying, the flies were anesthetized with CO2 and transferred to a recovery cage containing a milk pad for food. The cages were held for 18-20 hours after which mortality counts were made. Both dead and moribund flies were counted. The tests were conducted employing several different dosage rates for each test compound.
as §1

Four molecules from US4467104A, “Esters of 2-(2-chlorocarbonyl)-2-(2,3-dihydro-2-alkylbenzofuran-7-yl)-hydrazinecar boxylic acid” (Shell Oil Company, priority 1982, dated 1984) can be followed below.

`CCOC(=O)NN(C(=O)Cl)c1cccc2c1OC(C)(C)C2` [Compound 2, 2-(2-chlorocarbonyl)-2-(2,3-dihydro-2,2-dimethyl-benzofuran-7-yl)hydrazinecarboxylic acid ethyl ester]: the “LC50 Corn Earworm” value in experiment [1] is 0.1 % w. Further, the “LC50 Pea Aphid” value in experiment [2] is on record as 0.0003 % w. Moreover, the “LC50 Spider mite” value in experiment [3] is on record as over 0.2 % w. For the same molecule, the “LC50 Mosquito Larvae” value in experiment [4] is given as over 0.1 ppm. Also, in experiment [5], the “LC50 Housefly” value was over 0.5 % w.

Regarding `COC(=O)NN(C(=O)Cl)c1cccc2c1OC(C)C2` (centres unmarked) [Compound 5, 2-(2-chlorocarbony)-2-(2,3-dihydro-2-methylbenzofuran-7-yl)-hydrazinecarboxylic acid methyl ester], the “LC50 Corn Earworm” value in experiment [1] is listed as 0.057 % w. Also, in experiment [2], the “LC50 Pea Aphid” value came to 0.0005 % w. The “LC50 Spider mite” value in experiment [3] is reported as over 0.2 % w. Moreover, the “LC50 Mosquito Larvae” value in experiment [4] was 0.039 ppm. In experiment [5], the “LC50 Housefly” value was over 0.5 % w.

Consider `COC(=O)NN(C(=O)Cl)c1ccc(C)c2c1OC(C)(C)C2` [Compound 4, 2-(2-chlorocarbonyl)-2-(2,3-dihydro-2,2,4-trimethylbenzofuran-7-yl)hydrazinecarboxylic acid methyl ester], for which the “LC50 Corn Earworm” value in experiment [1] amounted to 0.033 % w. Besides, in experiment [2], the “LC50 Pea Aphid” value is recorded as 0.0002 % w. For the same molecule, the “LC50 Spider mite” value in experiment [3] is over 0.2 % w. Besides, the “LC50 Mosquito Larvae” value in experiment [4] is 0.02 ppm. The “LC50 Housefly” value in experiment [5] is listed as over 0.5 % w.

As to `COC(=O)NN(C(=O)Cl)c1cccc2c1OC(C)(C)C2` [Compound 1, 2-(2-chlorocarbonyl)-2-(2,3-dihydro-2,2-dimethylbenzofuran-7-yl)hydrazinecarboxlic acid methyl ester], in experiment [1], the “LC50 Corn Earworm” value stood at 0.043 % w. Further, the “LC50 Pea Aphid” value in experiment [2] is on record as 0.00008 % w. In addition, the “LC50 Spider mite” value in experiment [3] is on record as over 0.02 % w. The “LC50 Mosquito Larvae” value in experiment [4] is on record as 0.016 ppm. The “LC50 Housefly” value in experiment [5] was over 0.5 % w.
